Counter-ions that a name gives are not always drawn.
SMILES | melting point
O=C1CC[C@H](NCc2ccccc2C(=O)Nc2ccccc2)C(=O)N1 (as salt: hydrobromid) [Example 8.7, 2-[(3S)-(2,6-dioxopiperidin-3-ylamino)methyl]-N-phenylbenzamide] | 136 to 138 °C
COc1ccc(CNC2CCC(=O)NC2=O)c(OC)c1 (racemic) (as salt: hydrochloride) [Example 2.2, 3-(2,4-dimethoxybenzylamino) piperidine-2,6-dione] | 214 °C (dec.)
O=C1CCC(NCc2c(F)cccc2F)C(=O)N1 (racemic) (as salt: hydrochloride) [Example 2.3, 3-(2,6-difluorobenzylamino) piperidine-2,6-dione] | 208 to 215 °C (dec.)
O=C1CCC(NCc2cc(F)ccc2F)C(=O)N1 (racemic) (as salt: hydrochloride) [Example 2.4, 3-(2,5-difluorobenzylamino) piperidine-2,6-dione] | 208 °C (dec.)
O=C1CCC(NCc2cc(F)cc(F)c2)C(=O)N1 (racemic) (as salt: hydrochloride) [Example 2.5, 3-(3,5-difluorobenzylamino) piperidine-2,6-dione] | 230 to 236 °C (dec.)
O=C1CCC(NCc2cccc(OC(F)(F)F)c2)C(=O)N1 (racemic) (as salt: hydrochloride) [Example 2.11, 3-(3-trifluoromethoxybenzylamino) piperidine-2,6-dione] | 199 to 201 °C
O=C1CCC(NCc2cc(Cl)cc(Cl)c2)C(=O)N1 (racemic) (as salt: hydrochloride) [Example 2.17, 3-(3,5-dichlorobenzylamino) piperidine-2,6-dione] | 234 to 238 °C
O=C1CCC(NCc2cc(F)cc(C(F)(F)F)c2)C(=O)N1 (racemic) (as salt: hydrochloride) [Example 2.18, 3-[3-fluoro-5-(trifluoromethyl)benzylamino]piperidine-2,6-dione] | 241 to 243 °C
O=C1CCC(NCc2ccc(C(F)(F)F)cc2)C(=O)N1 (racemic) (as salt: hydrochloride) [Example 2.21, 3-(4-trifluoromethylbenzylamino) piperidine-2,6-dione] | 252 to 255 °C
O=C1CCC(NCc2ccc(F)cc2)C(=O)N1 (racemic) (as salt: hydrochloride) [Example 2.23, 3-(4-fluorobenzylamino) piperidine-2,6-dione] | 241 to 242 °C
O=C1CCC(NCc2ccc(Cl)c(Cl)c2)C(=O)N1 (racemic) (as salt: hydrochloride) [Example 2.33, 3-(3,4-dichlorobenzylamino) piperidine-2,6-dione] | 252 to 254 °C
O=C1CCC(NCc2cc(C(F)(F)F)cc(C(F)(F)F)c2)C(=O)N1 (racemic) (as salt: hydrochloride) [Example 2.34, 3-[3,5-bis(trifluoromethyl)benzylamino]piperidine-2,6-dione] | 263 to 265 °C
O=C1CCC(NCc2ccc(OC(F)(F)F)cc2)C(=O)N1 (racemic) (as salt: hydrochloride) [Example 2.36, 3-(4-trifluoromethoxybenzylamino) piperidine-2,6-dione] | 253 to 255 °C

More lines, now with the values ahead:

melting point | SMILES
155 to 156 °C (dec.) | NC(=O)c1ccccc1CN[C@H]1CCC(=O)NC1=O (as salt: hydrobromid) [Example 8.3, 2-[(3S)-(2,6-dioxopiperidin-3-ylamino)methyl]benzamide]
241 to 242 °C | NNC(=O)c1ccccc1CN[C@H]1CCC(=O)NC1=O (as salt: hydrobromid) [Example 8.6, 2-[(3S)-(2,6-dioxopiperidin-3-ylamino)methyl]benzoic acid hydrazide]
232 to 233 °C | NC(=O)c1ccccc1CN[C@@H]1CCC(=O)NC1=O (as salt: hydrobromid) [Example 8.12, 2-[(3R)-(2,6-dioxopiperidin-3-ylamino)methyl]benzamide]
> 250 °C (dec.) | O=C1CCC(NCc2ccccc2C(F)(F)F)C(=O)N1 (racemic) (as salt: hydrochloride) [Example 2.1, 3-(2-trifluoromethylbenzylamino) piperidine-2,6-dione]
188 °C (dec.) | O=C1CCC(NCc2cccc3ccccc23)C(=O)N1 (racemic) (as salt: hydrochloride) [Example 2.6, 3-[(naphth-1-ylmethyl)amino]piperidine-2,6-dione]
206 to 212 °C (dec.) | O=C1CCC(NCc2cccc(F)c2F)C(=O)N1 (racemic) (as salt: hydrochloride) [Example 2.7, 3-(2,3-difluorobenzylamino) piperidine-2,6-dione]
241 to 242 °C | O=C1CCC(NCc2ccc(F)cc2Cl)C(=O)N1 (racemic) (as salt: hydrochloride) [Example 2.13, 3-(2-chloro-4-fluorobenzylamino) piperidine-2,6-dione]
238 to 240 °C | Cc1cccc(Cl)c1CNC1CCC(=O)NC1=O (racemic) (as salt: hydrochloride) [Example 2.15, 3-(2-chloro-6-methylbenzylamino) piperidine-2,6-dione]
235 to 240 °C | Cc1ccccc1CNC1CCC(=O)NC1=O (racemic) (as salt: hydrochloride) [Example 2.16, 3-(2-methylbenzylamino) piperidine-2,6-dione]
231 to 235 °C | O=C1CCC(NCc2cccc(F)c2)C(=O)N1 (racemic) (as salt: hydrochloride) [Example 2.19, 3-(3-fluorobenzylamino) piperidine-2,6-dione]
240 to 242 °C | Cc1cccc(CNC2CCC(=O)NC2=O)c1 (racemic) (as salt: hydrochloride) [Example 2.20, 3-(3-methylbenzylamino) piperidine-2,6-dione]
237 to 238 °C | O=C1CCC(NCc2cccc(Cl)c2)C(=O)N1 (racemic) (as salt: hydrochloride) [Example 2.26, 3-(3-chlorobenzylamino) piperidine-2,6-dione]
240 to 242 °C | O=C1CCC(NCc2ccc(Cl)cc2Cl)C(=O)N1 (racemic) (as salt: hydrochloride) [Example 2.28, 3-(2,4-dichlorobenzylamino) piperidine-2,6-dione]
245 to 247 °C | O=C1CCC(NCc2ccccc2F)C(=O)N1 (racemic) (as salt: hydrochloride) [Example 2.29, 3-(2-fluorobenzylamino) piperidine-2,6-dione]
244 to 246 °C | O=C1CCC(NCc2ccccc2Br)C(=O)N1 (racemic) (as salt: hydrochloride) [Example 2.30, 3-(2-bromobenzylamino) piperidine-2,6-dione]
246 to 248 °C | O=C1CCC(NCc2cccc(Cl)c2Cl)C(=O)N1 (racemic) (as salt: hydrochloride) [Example 2.32, 3-(2,3-dichlorobenzylamino) piperidine-2,6-dione]
229 to 232 °C | O=C1CCC(NCc2cccc(Br)c2)C(=O)N1 (racemic) (as salt: hydrochloride) [Example 2.35, 3-(3-bromobenzylamino) piperidine-2,6-dione]
262 to 265 °C | O=C1CCC(NCc2ccc(Cl)cc2)C(=O)N1 (racemic) (as salt: hydrochloride) [Example 2.37, 3-(4-chlorobenzylamino) piperidine-2,6-dione]
